Experimental data as given in patent US5837728A, “9-cis retinoic acid esters and amides and uses thereof” (priority 1995, dated 1998).

Legend:
[1] = system: skin (inner forearm, cheek); assay: Topical assay for comparative dermal irritation in human subjects; type: in vivo, human (patients)
Method: 2-(9-cis-retinoyloxy)-4-methoxyacetophenone is evaluated in a study of its potential to produce dermal irritation. Comparisons are made of tretinoin, isotretinoin, 2-(9-cis-retinoyloxy)-4-methoxyacetophenone, and the vehicle solution.
In the first test, four solutions are used. The control consists of vehicle solution, namely a solution of 60% by volume ethanol and 40% by volume polyethylene glycol. The other three solutions are 0.025% solutions of tretinoin, isotretinoin, or 2-(9-cis-retinoyloxy)-4-methoxyacetophenone in 60% by volume ethanol and 40% by volume polyethylene glycol. Four patients paint two saturated cotton swabs of each of the four solutions on four different areas of the inner forearm, twice daily for ten days.
In the second test, four other solutions are used. The control consists of vehicle solution, namely a solution of 90% by volume ethanol and 10% by volume polyethylene glycol. The other three solutions are 0.075% solutions of tretinoin, isotretinoin, or 2-(9-cis-retinoyloxy)-4-methoxyacetophenonein 90% by volume ethanol and 10% by volume polyethylene glycol. Four patients paint two saturated cotton swabs of each of the four solutions on four different areas of the inner forearm, twice daily for ten days. Only one subject experiences an irritant reaction. […] By day nine, both areas are still reacting, the tretinoin area more intensely than the isotretinoin area. There is no reaction in either the 2-(9-cis-retinoyloxy)-4-methoxyacetophenone or the control areas.
In the third test, three solutions are used. The three solutions are 0.075% solutions of tretinoin, isotretinoin, or 2-(9-cis-retinoyloxy)-4-methoxyacetophenone in 90% by volume ethanol and 10% by volume polyethylene glycol. Four patients paint two saturated cotton swabs of the 2-(9-cis-retinoyloxy)-4-methoxyacetophenone solution twice daily on one cheek of their faces. To the other cheek they apply two saturated cotton swabs of either tretinoin or isotretinoin.
The tests are carried out in double-blind fashion, that is, neither the subjects nor the investigator know the contents of the solutions during the study.
Clinical assessments are made daily of the subjects cheeks. All subjects develop irritant reactions by the third or fourth day of the study.

sebaceous gland = assay: Oral hamster sebaceous gland reduction assay; type: in vivo, male Syrian golden hamsters; design: key to the marks not given beside the values; conditions: 32 mg/kg
Method: An oral assay for hamster sebaceous gland reduction is conducted.
Hamsters are dosed orally with the test compound and vehicle alone. The reduction in sebaceous gland size is estimated microscopically in relation to the control. The assay is unique and proprietary to Ortho Pharmaceutical Corp. and is based upon the work of Plewig et al. (1977) and Gomex et al. (1980). Plewig, et al., Hamster Ear Model for Sebaceous Glands, J. Invest. Derm. 68: 171-176 (1977). Gomez, et al., Effect of 13-cis-Retinoic Acid on the Hamster Flank Organ, J. Invest. Derm. 74: 392-397 (1980).
For oral (p.o.) studies, male Syrian golden hamsters are […] at 5 ml/kg, once daily, five consecutive days/week for two or three weeks. Modified but similar dosing schedules could be used. Control hamsters are dosed with vehicle alone at 5 ml/kg. Following final treatment (up to 72 hours), the hamsters are sacrificed in a CO2 atmosphere. Samples of each test site are placed into 10% buffered formalin and histologically prepared. Serial sections of each sample are stained (H&E) and examined microscopically.
The reduction in sebaceous gland size is estimated microscopically in relation to the control treated sites. To quantify sebaceous gland size, cross-sectional areas are measured with an image analyzer system.

retinoid receptors = conditions: all six subfamilies of retinoid receptors; cited from earlier work
[2] = system: donor sites (partial-thickness wounds); conditions: average, silver sulfadiazine cream containing epidermal growth factor; cited from earlier work
[3] = system: ulceration of both lower legs; conditions: one patient, livedoid vasculitis; cited from earlier work

In the case of `CC1=C(/C=C/C(C)=C/C=C/C(C)=C\C(=O)O)C(C)(C)CCC1` [13-cis-retinoic acid], the “Irritant reactions, inner forearm” value ([1]; first test, 0.025% solution, twice daily for ten days) was “No irritant reactions occur”, the “Irritant reaction, inner forearm” value ([1]; second test, 0.075% solution, twice daily for ten days, one subject of four reacted) was “On day seven, the isotretinoin area begins reacting with redness and peeling” and the “Irritation of the cheeks” value ([1]; third test, 0.075% solution, twice daily, six days) was “reactions which are so intense with redness and peeling that all subjects discontinue application on or before the sixth day”. The Sebaceous gland reduction (sebaceous gland) was “++”.
For `CC1=C(/C=C/C(C)=C\C=C\C(C)=C\C(=O)O)C(C)(C)CCC1` [9-cis-retinoic acid], the “Equilibrium constants in competitive binding” value (retinoid receptors) is given as “lowest equilibrium constants of all retinoids for all six subfamilies of retinoid receptors”.
In the case of epidermal growth factor, the “Acceleration of donor site healing time” value [2] is given as 1.5 days.
For `O=C(c1ccc(F)cc1)C1CCN(CCn2c(=O)[nH]c3ccccc3c2=O)CC1` [Ketanserin], the “Effect on recalcitrant ulceration” value [3] is listed as “healed the lesions in a patient with recalcitrant ulceration of both lower legs”.
